# Results published in patent US20220096529A1, “2-HYDROXYPROPYL-BETA-CYCLODEXTRIN (HPBETACD) FOR USE IN THE TREATMENT OF BREAST CANCER” (UNIVERSITY OF THE WITWATERSRAND, JOHANNESBURG, priority 2019, published 2022).
# Assays:
# MCF7 cells [1] = experiment: BODIPY lipid droplet staining; format: cell-based, human
# Description: Lipid droplets store cholesterol and HPβCD was able to reduce accumulation and storage of cholesterol in cancer cells (see FIG. 52). […] (A) is untreated, (B) is positive and (C) is treated. […] Lipid droplets store cholesterol and HPβCD was able to reduce accumulation and storage of cholesterol in cancer cells.
# MCF7 cells [2] = experiment: Caspase 3/7 assay; format: cell-based, human; conditions: MCF7, 10 mM HPβCD
# Description: (§1) The final step in apoptosis following the intrinsic pathway is the activation of executioner caspases like caspase 3 and caspase 7 […]. Therefore, to confirm that cell death was due to the mitochondrial mediated pathway of apoptosis a Caspase 3/7 assay was conducted. Caspases are activated in response to a myriad of cellular death stimuli and they dismantle the cell. Caspase 3 and caspase 7 contribute to the majority of proteolytic cleavage occurring in apoptosis. As a final step to confirm and validate apoptosis via the mitochondrial intrinsic pathway, the Caspase 3/7 assay was conducted on three cell lines: MCF7, MDA-MB-231 & HEK-293. HPβCD and positive (40 μM PL) were treated for 24 hrs. The percentage of dead/apoptotic cells are clearly indicated in specific corners of each quadrants in the above plots.
# MDA-MB-231 cells [3] = experiment: Caspase 3/7 assay; format: cell-based, human; conditions: MDA-MB-231, 10 mM HPβCD, 24 hrs
# Description: as §1
# HEK-293 cells [4] = experiment: Caspase 3/7 assay; format: cell-based, human; conditions: HEK-293, 10 mM HPβCD, 24 hrs
# Description: as §1
# MCF7 cells [5] = experiment: Cell-APOPercentage apoptosis assay; format: cell-based, human; conditions: MCF7, 10 mM HPβCD, 24 hrs
# Description: (§2) APOPercentage assays gives a measure of overall apoptosis in the cell. Apoptosis is an early event and therefore just one time point (24 hrs) was selected and tested on four cell lines MCF7, MDA-MB-231, MRC-5 & HEK-293 cells. 10 μM Plumbagin was used a positive control as opposed to 40 μM from MTT because higher concentrations of plumbagin was way too toxic for the cells and to capture the early activity, optimal dosage was required. To confirm the growth inhibition obtained from the MTT assay was actually due to apoptosis, a Cell-APOPercentage Apoptosis assay was performed according to known methods.
# MRC-5 cells [6] = experiment: Cell-APOPercentage apoptosis assay; format: cell-based, human; conditions: 24 hrs
# Description: as §2
# MDA-MB-231 cells [7] = experiment: Cell-APOPercentage apoptosis assay; format: cell-based, human; conditions: 24 hrs
# Description: as §2
# HEK-293 cells [8] = experiment: Cell-APOPercentage apoptosis assay; format: cell-based, human; conditions: 24 hrs
# Description: as §2
# MCF7 cells [9] = experiment: RT2 Profiler PCR Array Human Breast cancer; format: cell-based
# Source text: (§3) PCR (polymerase chain reaction) arrays were run to identify gene expression changes in cancer cells after treatment with HPβCD. The differentially expressed genes along with their significance for cancer, some genes were selected for further drug-protein interaction studies.
# MDA-MB-231 cells [10] = experiment: RT2 Profiler PCR Array Human Breast cancer; format: cell-based
# Source text: as §3
# MCF7 cells [11] = experiment: Mitochondrial outer membrane potential assay (MOMP); format: cell-based, human; conditions: MCF7, 10 mM, 24 hrs
# Description: (§4) One of the key hallmarks of apoptosis is the loss of mitochondrial membrane potential. To investigate that aspect we did a MOMP assay which validates our Cell-APOPercentage assay. This assay was tested on three cell lines MCF7, MDA-MB-231 & MRC-5. The top right and bottom hand quadrants of each plot represents healthy (FL2-A) and apoptotic (FL1-A) cells respectively (see FIGS. 13 to 15).
# (§5) From the results obtained from MTT (IC50 values) and Cell-APOPercentage assays it was quite evident that ˜10 mM HPβCD caused cellular growth inhibition through apoptosis in cancer cells and had little or no effect in normal cells. Therefore, we selected just 10 mM HPβCD going forward as the only working concentration for HPβCD treatment. 24 hrs time point was selected (HPβCD & 10 mM H2O2) because mitochondrial membrane potential loss is an early cellular event.
# MRC-5 cells [12] = experiment: as above; format: cell-based, human; conditions: MRC-5, 10 mM HPβCD, 24 hrs
# Description: as §4, §5
# MDA-MB-231 cells [13] = experiment: as above; format: cell-based, human; conditions: MDA-MB-231, 10 mM, 24 hrs
# Description: as §4, §5
# SREBP-1 in MCF7 cells = experiment: Western blotting for SREBP-1; format: cell-based, human; conditions: MCF7, 10 mM HPβCD, 24 hrs
# Description: (§6) In order to delve in to more detailed mechanisms of cholesterol depletion a western blotting analysis was conducted for SREBP-1 protein, which is a known transcription factor involved in cholesterol homeostasis. Lysates from MCF7, MDA-MB-231 and MRC-5 cells were used. 10 mM HPβCD was treated for 24 hrs. SREBPs are key elements responsible for the gene expression of vital enzymes involved in fatty acid synthesis which includes SREBP 1 and SREBP 2. […] In order to investigate this characteristic feature of SREBPs a western blot analysis was conducted to see if HPβCD treatment does alter SREBP levels.
# SREBP-1 in MRC-5 cells = experiment: Western blotting for SREBP-1; format: cell-based, human; conditions: MRC-5, 10 mM HPβCD, 24 hrs
# Description: as §6
# [14] = tested on: SREBP-1 in MDA-MB-231 cells; experiment: Western blotting for SREBP-1; format: cell-based, human; conditions: MDA-MB-231, 10 mM HPβCD, 24 hrs
# Description: as §6
# MDA-MB-231 tumours = experiment: Filipin cholesterol staining of tumour tissue from mice; format: in vivo; conditions: intermediate and late stage tumours
# Source text: 4 from untreated, 3 from intermediate and 4 from late stage.
substance,measurement,setting,value
2-hydroxypropyl-β-cyclodextrin [HPβCD],lipid droplets (BODIPY) in treated vs untreated cells,MCF7 cells [1],decrease in lipid droplets
same,total apoptosis compared to untreated,MCF7 cells [2],almost two times more
same,Total Apoptotic (caspase 3/7),MCF7 cells [2]; 24 hrs,12.5%
same,Total Apoptotic (caspase 3/7),MDA-MB-231 cells [3],48.75%
same,Total Live (caspase 3/7),HEK-293 cells [4],66.75%
same,cell death (apoptosis),MCF7 cells [5],around 45%
same,cell death (apoptosis),"MRC-5 cells [6]; MRC-5, 20 mM HPβCD",~15%
same,cell death (apoptosis),"MRC-5 cells [6]; MRC-5, 50 mM HPβCD",~18%
same,cell death (apoptosis),"MRC-5 cells [6]; MRC-5, till 10 mM HPβCD",almost zero percentage cell death
same,cell death (apoptosis),"MDA-MB-231 cells [7]; MDA-MB-231, 10 mM HPβCD",around 40%
same,maximum cell death (apoptosis),"MDA-MB-231 cells [7]; MDA-MB-231, 50 mM HPβCD",~70%
same,cell death (apoptosis),"HEK-293 cells [8]; HEK-293, 20 mM HPβCD",~15%
same,cell death (apoptosis),"HEK-293 cells [8]; HEK-293, 50 mM HPβCD",~18%
same,cell death (apoptosis),"HEK-293 cells [8]; HEK-293, till 10 mM HPβCD",almost zero percentage cell death
same,ADAM23 gene expression,MCF7 cells [9],downregulated by many folds
same,CTSD gene expression,MCF7 cells [9],significantly downregulated
same,ADAM23 gene expression,MDA-MB-231 cells [10],upregulated
same,Akt1 gene expression,MDA-MB-231 cells [10],upregulated
same,CTSD gene expression,MDA-MB-231 cells [10],upregulated
same,GATA3 gene expression,MDA-MB-231 cells [10],downregulated
same,SFRP1 gene expression,MDA-MB-231 cells [10],upregulated
same,apoptotic population (loss of mitochondrial membrane potential),MCF7 cells [11],92.1%
same,apoptotic cells,MRC-5 cells [12],12.8%
same,non-apoptotic/healthy population,MRC-5 cells [12],98.2%
same,apoptotic cells / cell death (loss of mitochondrial membrane potential),MDA-MB-231 cells [13],78.1%
same,SREBP-1 protein level compared to untreated lysate,SREBP-1 in MCF7 cells,about five times less activity of SREBP-1
same,SREBP-1 activity compared to untreated lysate,SREBP-1 in MRC-5 cells,remained equal
same,SREBP-1 protein level compared to untreated lysate,[14],about two and a half times less activity of SREBP-1
same,cholesterol (Filipin staining) in tumours compared to untreated,MDA-MB-231 tumours,decreased cholesterol
